According to US12723023B2, “Ionizable cationic lipids for RNA delivery” (Arcturus Therapeutics, Inc., priority 2021, dated 2026):

Experiments:
Mouse plasma stability = type: in vitro ADME, CD-1 mouse; conditions: 1 μM lipid
Protocol: Lipid stock solution was prepared by dissolution of the lipid in isopropanol at the concentration of 5 mg/mL. A requisite volume of the lipid-isopropanol solution was then diluted to 100 μM concentration at a total volume of 1.0 mL with in 50:50 (v/v) ethanol/water. Ten microliters of this 100 μM solution was spiked into 1.0 mL of mouse plasma (BioIVT, Cat. No.: MSE00PLNHUNN, CD-1 mouse, anticoagulant: sodium heparin, not filtered) that was pre-warmed to 37° C. and was stirred at 50 rpm with a magnetic stir bar. The starting concentration of lipids in plasma was thus 1 μM. At time points 0, 15, 30, 45, 60 and 120 min, 0.1 mL of the plasma was withdrawn from the reaction mixture and the protein was precipitated by adding 0.9 mL of ice-cold 4:1 (v/v) acetonitrile/methanol with 1 μg/mL of a selected internal standard lipid added. After filtration through a 0.45 micron 96-well filtering plate, the filtrates were analyzed by LC-MS (Thermo Fisher's Vanquish UHPLC-LTQ XL linear ion trap Mass Spectrometer); Waters XBridge BEH Shield RP18 2.5 micron (2.1×100 mm) column with its matching guard column. Mobile phase A was 0.1% formic acid in water, and mobile phase B was 0.1% formic acid in 1:1 (v/v) acetonitrile/methanol. Flow rate was 0.5 ml/min. Elution gradient was: Time 0-1 min: 10% B; 1-6 min: 10%-95% B; 6-8.5 min: 95% B; 8.5-9 min: 95%-10% B; 9-10 min: 10% B. Mass spectrometry was in positive scanning mode from 600-1100 m/z. The peak of the molecular ion of the lipids was integrated in the extracted ion chromatography (XIC) using Xcalibur software (Thermo Fisher). The relative peak area compared to T=0, after normalization by the peak area of the internal standard, was used as the percentage of the lipid remaining at each time point. T1/2 values were calculated using the first-order decay model.

[1] = In vivo biodegradability assay (lipid concentration in mouse liver by LC-MS); design: species or system mice; conditions: BLOQ: below level of quantification; for In vivo degradability (ng tissue) at 48 h 0.1 mpk: Table 1, 0.1 mpk; for In vivo degradability (ng/tissue) at 48 h 0.1 mpk: Table 2, 0.1 mpk
Protocol: In vivo biodegradability assay was performed to assess the biodegradability of lipids in the LNP. Briefly, mice were injected with either 0.1 or 0.03 mg/Kg dose and after 24 or 48 hours mice livers were collected. To measure the concentration of lipids in the mouse liver, liver samples were homogenized in appropriate buffer in 1-10 dilution and mixed with the same amount of stabilized plasma. The samples were then mixed with organic solvents spiked with internal standard to precipitate proteins. After centrifugation, supernatant was diluted further with organic solvent before sample analysis by LC-MS. In LC-MS analysis, positive electrospray ionization was used, and multiple reaction monitoring (MRM) parameters were set up to specifically target the lipid analyte and internal standard. Calibration standards were prepared in stabilized plasma and mixed with same amount of homogenization buffer before protein precipitation. Quality control samples with known amounts of lipid was prepared in blank liver homogenate to monitor the precision and accuracy of the assay.

Plasma half life % remaining after 2 h (Mouse plasma stability; Table 1, 37° C.)	Plasma half life % remaining after 2 h (Mouse plasma stability; Table 2, 37° C.)	In vivo degradability (ng/tissue) at 48 h 0.03 mpk ([1]; Table 1, 0.03 mpk)	In vivo degradability (ng tissue) at 48 h 0.1 mpk [1]	In vivo degradability (ng/tissue) at 48 h 0.03 mpk ([1]; Table 2, 0.03 mpk)	In vivo degradability (ng/tissue) at 48 h 0.1 mpk [1]	Compound
74%	74%	<340 ng/tissue	<340 ng tissue	<340 ng/tissue	<340 ng/tissue	CCCCCCCCC(=O)OCC(COC(=O)CCCCCCCC)OC(=O)CCN(CCC(=O)OC(COC(=O)CCCCCCCC)COC(=O)CCCCCCCC)C(=O)SCCCN(C)C [LIPID 13]
	100%			BLOQ	BLOQ	CN(C)CCCSC(=O)N(CCCC(=O)OC(COC(=O)C1CCC2CCCC2C1)COC(=O)C1CCC2CCCC2C1)CCCC(=O)OC(COC(=O)C1CCC2CCCC2C1)COC(=O)C1CCC2CCCC2C1 (centres unmarked) [LIPID 30, ((4,4′-((((3-(dimethylamino)propyl)thio)carbonyl)azanediyl)bis(butanoyl))bis(oxy))bis(propane-2,1,3-triyl) tetrakis(octahydro-1H-indene-5-carboxylate)]
116%	100%	<340 ng/tissue	<340 ng tissue	<340 ng/tissue	<340 ng/tissue	CCCCCCCCC(=O)OCC(COC(=O)CCCCCCCC)COC(=O)CCN(CCC(=O)OCC(COC(=O)CCCCCCCC)COC(=O)CCCCCCCC)C(=O)SCCCN(C)C [LIPID 14]
	100%			BLOQ	BLOQ	CCCCCCCCC(=O)OCC(COC(=O)CCCCCCCC)COC(=O)CCN(CCC(=O)OCC(COC(=O)CCCCCCCC)COC(=O)CCCCCCCC)C(=O)SCCN(C)C [LIPID 26, ((3,3′-((((2-(Dimethylamino)ethyl)thio)carbonyl)azanediyl)bis(propanoyl))bis(oxy))bis(methylene))bis(propane-2,1,3-triyl) tetranonanoate]
	100%	<340 ng/tissue	847 ng tissue	<340 ng/tissue	847 ng/tissue	CCCCCC(C)(C)C(=O)OCC(COC(=O)C(C)(C)CCCCC)OC(=O)CCCN(CCCC(=O)OC(COC(=O)C(C)(C)CCCCC)COC(=O)C(C)(C)CCCCC)C(=O)SCCCN(C)C [LIPID 19, ((4,4′-((((3-(Dimethylamino)propyl)thio)carbonyl)-azanediyl)bis(butanoyl))bis(oxy))bis(propane-2,1,3-triyl) tetrakis(2,2-dimethylheptanoate)]
	100%			BLOQ	BLOQ	CCCCCCCC(=O)OCC(C)(COC(=O)CCCCCCC)COC(=O)CCN(CCC(=O)OCC(C)(COC(=O)CCCCCCC)COC(=O)CCCCCCC)C(=O)SCCCN(C)C [LIPID 24]
14%	14%	BLOQ	BLOQ	BLOQ	BLOQ	CCCCCCCCC(=O)OCC(COC(=O)CCCCCCCC)OC(=O)CCCN(CCCC(=O)OC(COC(=O)CCCCCCCC)COC(=O)CCCCCCCC)C(=O)SCCCN(C)C [LIPID 1, ((4,4′-((((3-(Dimethylamino)propyl)thio)carbonyl)azanediyl)bis(butanoyl))bis(oxy))bis(propane-2,1,3-triyl) tetranonanoate]
	100%			BLOQ	BLOQ	CC1CCC(CCC(=O)OCC(COC(=O)CCC2CCC(C)CC2)COC(=O)CCN(CCC(=O)OCC(COC(=O)CCC2CCC(C)CC2)COC(=O)CCC2CCC(C)CC2)C(=O)SCCCN(C)C)CC1 (centres unmarked) [LIPID 27]
13%	13%	BLOQ	BLOQ	BLOQ	BLOQ	CCCCCCCC(=O)OCC(COC(=O)CCCCCCC)OC(=O)CCCC(CCCC(=O)OC(COC(=O)CCCCCCC)COC(=O)CCCCCCC)SC(=O)CCCN(C)C [LIPID 4, bis(1,3-bis(Octanoyloxy)propan-2-yl) 5-((4-(dimethylamino)butanoyl)thio)nonanedioate]
	100%			BLOQ	BLOQ	CCCCCCCCC(=O)OCC(COC(=O)CCCCCCCC)COC(=O)CCCN(CCCC(=O)OCC(COC(=O)CCCCCCCC)COC(=O)CCCCCCCC)C(=O)SCCCN(C)C [LIPID 25, ((4,4′-((((3-(Dimethylamino)propyl)thio)carbonyl)azanediyl)bis(butanoyl))bis(oxy))bis(methylene))bis(propane-2,1,3-triyl) tetranonanoate]
	100%			<340 ng/tissue	<340 ng/tissue	CC1CCC(CC(=O)OCC(C)(COC(=O)CCN(CCC(=O)OCC(C)(COC(=O)CC2CCC(C)CC2)COC(=O)CC2CCC(C)CC2)C(=O)SCCCN(C)C)COC(=O)CC2CCC(C)CC2)CC1 (centres unmarked) [LIPID 21]
36%	36%	BLOQ	BLOQ	BLOQ	BLOQ	CN(C)CCCSC(=O)N(CCCC(=O)OC(COC(=O)CCC1CCCCC1)COC(=O)CCC1CCCCC1)CCCC(=O)OC(COC(=O)CCC1CCCCC1)COC(=O)CCC1CCCCC1 [LIPID 10, ((4,4′-((((3-(Dimethylamino)propyl)thio)carbonyl)azanediyl)bis(butanoyl))bis(oxy))bis(propane-2,1,3-triyl) tetrakis(3-cyclohexylpropanoate)]
40%	40%	BLOQ	BLOQ	BLOQ	BLOQ	CN(C)CCCSC(=O)N(CCCC(=O)OC(COC(=O)CCCC1CCCCC1)COC(=O)CCCC1CCCCC1)CCCC(=O)OC(COC(=O)CCCC1CCCCC1)COC(=O)CCCC1CCCCC1 [LIPID 11, ((4,4′-((((3-(Dimethylamino)propyl)thio)carbonyl)azanediyl)bis(butanoyl))bis(oxy))bis(propane-2,1,3-triyl) tetrakis(4-cyclohexylbutanoate)]
	100%			BLOQ	BLOQ	CN(C)CCCSC(=O)N(CCCC(=O)OC(COC(=O)C1CC2CCCCC2C1)COC(=O)C1CC2CCCCC2C1)CCCC(=O)OC(COC(=O)C1CC2CCCCC2C1)COC(=O)C1CC2CCCCC2C1 (centres unmarked) [LIPID 28]
81%	81%	BLOQ	BLOQ	BLOQ	BLOQ	CCCCCCCCC(=O)OCC(COC(=O)CCCCCCCC)OC(=O)CN(CC(=O)OC(COC(=O)CCCCCCCC)COC(=O)CCCCCCCC)C(=O)SCCCN(C)C [LIPID 8, ((2,2′-((((3-(Dimethylamino)propyl)thio)carbonyl)azanediyl)bis(acetyl))bis(oxy))bis(propane-2,1,3-triyl) tetranonanoate]
100%	100%	<340 ng/tissue	639 ng tissue	<340 ng/tissue	639 ng/tissue	CCCCCCC(C)C(=O)OCC(COC(=O)C(C)CCCCCC)OC(=O)CCCN(CCCC(=O)OC(COC(=O)C(C)CCCCCC)COC(=O)C(C)CCCCCC)C(=O)SCCCN(C)C (centres unmarked) [LIPID 18, ((4,4′-((((3-(Dimethylamino)propyl)thio)carbonyl)-azanediyl)bis(butanoyl))bis(oxy))bis(propane-2,1,3-triyl) tetrakis(2-methyloctanoate)]
